According to patent US20220125765A1, “PHARMACEUTICAL COMBINATIONS COMPRISING MEBENDAZOLE AND A STRONG OR MODERATE CYP1A2 INHIBITOR” (ZEPHAPHARM LTD, priority 2019, published 2022):
Where two headings read alike, the source gives them in different places.

What was measured:
[1] = tested on: A2780; assay: 2D monolayer CellTiter-Blue viability, ovarian cancer A2780; assay type: cell-based; conditions: for Test/Control (%) at Drug Concentration: 72 h; for IC50: Homo sapiens
Description: (§1) Mebendazole was tested in vitro across a panel of 12 tumor cell lines of ovarian and renal cancer by using a 2D monolayer assay. […] OVXF 899L and RXF 486L are P-gp expressing, multidrug resistant cell lines.
(§2) Anti-tumor activity is expressed as absolute and relative IC50/70 values, calculated by 4-parameter non-linear curve fit.

[2] = in vitro; conditions: human; for half-life at 1 μM: cryopreserved hepatocytes; for hepatocyte CLint at 1 µM: cryopreserved hepatocytes (suspension)
Description: The amount of test compound remaining at each time point was analysed by LC-MS/MS. Appropriate control compounds were also incubated.
The final incubation volume was 500 μL. Appropriate control compounds were included, alongside appropriate vehicle control.
The reactions were stopped by transferring 50 μL of incubate to 100 μL acetonitrile containing internal standard at the appropriate time points (0, 5, 10, 20, 40 and 60 min). The termination plates were centrifuged at 2500 rpm at 4° C. for 30 min to precipitate the protein.

[3] = tested on: RXF 1183L; assay: 2D monolayer CellTiter-Blue viability, renal cancer RXF 1183L; assay type: cell-based; conditions: for Test/Control (%) at Drug Concentration: 72 h
Description: as §1, §2

[4] = tested on: RXF 486L; assay: 2D monolayer CellTiter-Blue viability, renal cancer RXF 486L (P-gp expressing, multidrug resistant); assay type: cell-based; conditions: for Test/Control (%) at Drug Concentration: 72 h; for IC50: RXF 486L
Description: as §1, §2

[5] = in vitro; conditions: human, hepatocytes, t½
Description: Mebendazole (1 μM) was incubated with cryopreserved human hepatocytes for 60 min in the absence and presence of cimetidine at 30, 100 and 300 μM) and thiabendazole at 10, 30 and 100 μM and samples taken at the required time points. The amount of test compound remaining at each time point was analysed by LC-MS/MS. Appropriate control compounds were also incubated along with ethoxycoumarin, which was incubated in the absence and presence of cimetidine and thiabendazole.
The final incubation volume was 500 μL. Two control compounds were included, alongside appropriate vehicle control. A positive control compound, ethoxycoumarin, for CYP1A2 was included. The positive control compound was incubated without inhibitor and in the presence of each inhibitor. The reactions were stopped by transferring 50 μL of incubate to 100 μL acetonitrile containing internal standard at the appropriate time points (0, 5, 10, 20, 40 and 60 min). The termination plates were centrifuged at 2500 rpm at 4° C. for 30 min to precipitate the protein.

[6] = tested on: SXFS HT-1080; assay: 2D monolayer CellTiter-Blue viability, soft tissue sarcoma HT-1080; assay type: cell-based; conditions: 72 h
Description: Seventeen compounds, including mebendazole (Batch no. MKCC1885, Sigma-Aldrich, 100% pure), were tested in vitro across a panel of 8 selected neuroblastoma (NBXF) and 13 selected sarcoma (SXF) derived cell lines by using a 2D monolayer assay. Compounds were tested at […] in half-log increments up to 100 μM and cells were treated for a period of 72 hours. Efficacy of compounds was assessed using CellTiter-Blue® Cell Viability Assay. Anti-tumor activity is expressed as absolute and relative IC50 and IC70 values, calculated by non-linear regression analysis.

[7] = Stability in human cryopreserved hepatocytes without and with cimetidine or furafylline (Example 5); assay type: in vitro ADME; conditions: human; for hepatocyte CLint at 1 µM: read-out: intrinsic clearance
Description: The final incubation volume was 500 μL. Two control compounds were included with each species, alongside appropriate vehicle control.
The samples were analysed for mebendazole or ethoxycoumarin using LC-MS/MS.
The final incubation volume was 500 μL.
A positive control compound, ethoxycoumarin, for CYP1A2 was included. […] The samples were analysed for mebendazole or ethoxycoumarin using LC-MS/MS.

[8] = tested on: SXFS RH-41; assay: 2D monolayer CellTiter-Blue viability, soft tissue sarcoma RH-41; assay type: cell-based; conditions: 72 h
Description: (§3) Seventeen compounds, including mebendazole (Batch no. […] Efficacy of compounds was assessed using CellTiter-Blue® Cell Viability Assay. Anti-tumor activity is expressed as absolute and relative IC50 and IC70 values, calculated by non-linear regression analysis.

[9] = tested on: SXFS A-204; assay: 2D monolayer CellTiter-Blue viability, soft tissue sarcoma A-204; assay type: cell-based; conditions: 72 h
Description: as §3

COC(=O)Nc1nc2ccc(C(=O)c3ccccc3)cc2[nH]1 [Mebendazole, methyl N-(6-benzoyl-1H-benzimidazol-2-yl)carbamate]
Test/Control (%) at Drug Concentration ([1]; A2780, 1.0E+00 μM): 26%
Test/Control (%) at Drug Concentration ([1]; A2780, 1.0E−01 μM): 91%
Test/Control (%) at Drug Concentration ([1]; A2780, 1.0E−02 μM): 96%
Test/Control (%) at Drug Concentration ([1]; A2780, 1.0E−03 μM): 95%
Test/Control (%) at Drug Concentration ([1]; A2780, 1.0E−04 μM): 115%
Test/Control (%) at Drug Concentration ([1]; A2780, 3.2E+00 μM): 13%
Test/Control (%) at Drug Concentration ([1]; A2780, 3.2E−01 μM): 30%
Test/Control (%) at Drug Concentration ([1]; A2780, 3.2E−02 μM): 97%
Test/Control (%) at Drug Concentration ([1]; A2780, 3.2E−03 μM): 99%
Test/Control (%) at Drug Concentration ([1]; A2780, 3.2E−04 μM): 109%
Abs. IC70 ([1]; A2780, 72 h): 0.323 µM
Rel. IC70 ([1]; A2780, 72 h): 0.231 µM
Bot. (%) ([1]; A2780, 72 h, curve fit): 19%
Top (%) ([1]; A2780, 72 h, curve fit): 102%
IC50 ([1]; A2780, 72 h, read-out: Abs. IC50): 209 nM
IC50 ([1]; A2780, 72 h, read-out: Rel. IC50): 178 nM
half-life at 1 μM [2]: 115 min
hepatocyte CLint at 1 µM [2]: 12.1 ± 0.601 µL/min/1e6 cells
hepatocyte CLint at 1 µM ([2]; with cimetidine 30 µM): 24.8 ± 1.82 µL/min/1e6 cells
hepatocyte CLint at 1 µM ([2]; with cimetidine 100 µM): 18 ± 1.19 µL/min/1e6 cells
hepatocyte CLint at 1 µM ([2]; with cimetidine 300 µM): 24.8 ± 2.36 µL/min/1e6 cells
hepatocyte CLint at 1 µM ([2]; with fluvoxamine 3 µM): 8.14 ± 1.53 µL/min/1e6 cells
hepatocyte CLint at 1 µM ([2]; with fluvoxamine 10 μM): 10.8 ± 2.32 µL/min/1e6 cells
half-life at 1 μM ([2]; with cimetidine 30 μM): 55.9 min
half-life at 1 μM ([2]; with cimetidine 100 μM): 77.2 min
half-life at 1 μM ([2]; with cimetidine 300 μM): 55.9 min
half-life at 1 μM ([2]; with fluvoxamine 3 μM): 170 min
half-life at 1 μM ([2]; with fluvoxamine 10 μM): 128 min
half-life at 1 μM ([2]; with mexiletine 10 μM): 306 min
half-life at 1 μM ([2]; with mexiletine 30 μM): 132 min
half-life at 1 μM ([2]; with mexiletine 100 μM): 120 min
Test/Control (%) at Drug Concentration ([3]; RXF 1183, 1.0E+00 μM): 54%
Test/Control (%) at Drug Concentration ([3]; RXF 1183, 1.0E−01 μM): 79%
Test/Control (%) at Drug Concentration ([3]; RXF 1183, 1.0E−02 μM): 91%
Test/Control (%) at Drug Concentration ([3]; RXF 1183, 1.0E−03 μM): 93%
Test/Control (%) at Drug Concentration ([3]; RXF 1183, 1.0E−04 μM): 91%
Test/Control (%) at Drug Concentration ([3]; RXF 1183, 3.2E+00 μM): 32%
Test/Control (%) at Drug Concentration ([3]; RXF 1183, 3.2E−01 μM): 58%
Test/Control (%) at Drug Concentration ([3]; RXF 1183, 3.2E−02 μM): 80%
Test/Control (%) at Drug Concentration ([3]; RXF 1183, 3.2E−03 μM): 88%
Test/Control (%) at Drug Concentration ([3]; RXF 1183, 3.2E−04 μM): 88%
Abs. IC70 ([3]; RXF 1183, 72 h): >3.200 µM
Rel. IC70 ([3]; RXF 1183, 72 h): >3.200 µM
Bot. (%) ([3]; RXF 1183, 72 h, curve fit): 0%
Top (%) ([3]; RXF 1183, 72 h, curve fit): 91%
IC50 ([3]; RXF 1183, 72 h, read-out: Abs. IC50): 925 nM
IC50 ([3]; RXF 1183, 72 h, read-out: Rel. IC50): 1310 nM
Test/Control (%) at Drug Concentration ([4]; RXF 486, 1.0E+00 μM): 24%
Test/Control (%) at Drug Concentration ([4]; RXF 486, 1.0E−01 μM): 88%
Test/Control (%) at Drug Concentration ([4]; RXF 486, 1.0E−02 μM): 101%
Test/Control (%) at Drug Concentration ([4]; RXF 486, 1.0E−03 μM): 97%
Test/Control (%) at Drug Concentration ([4]; RXF 486, 1.0E−04 μM): 92%
Test/Control (%) at Drug Concentration ([4]; RXF 486, 3.2E+00 μM): 17%
Test/Control (%) at Drug Concentration ([4]; RXF 486, 3.2E−01 μM): 45%
Test/Control (%) at Drug Concentration ([4]; RXF 486, 3.2E−02 μM): 92%
Test/Control (%) at Drug Concentration ([4]; RXF 486, 3.2E−03 μM): 94%
Test/Control (%) at Drug Concentration ([4]; RXF 486, 3.2E−04 μM): 96%
Abs. IC70 ([4]; RXF 486, 72 h): 0.545 µM
Rel. IC70 ([4]; RXF 486, 72 h): 0.362 µM
Bot. (%) ([4]; RXF 486, 72 h, curve fit): 18%
Top (%) ([4]; RXF 486, 72 h, curve fit): 95%
IC50 ([4]; RXF 486, 72 h, read-out: Abs. IC50): 292 nM
IC50 ([4]; RXF 486, 72 h, read-out: Rel. IC50): 248 nM
half-life at 1 μM [5]: 92.4 min
Test/Control (%) at Drug Concentration ([6]; HT-1080, 1.0E+00 μM): 7%
Test/Control (%) at Drug Concentration ([6]; HT-1080, 1.0E+01 μM): 4%
Test/Control (%) at Drug Concentration ([6]; HT-1080, 1.0E+02 μM): 1%
Test/Control (%) at Drug Concentration ([6]; HT-1080, 1.0E−01 μM): 79%
Test/Control (%) at Drug Concentration ([6]; HT-1080, 1.0E−02 μM): 89%
Test/Control (%) at Drug Concentration ([6]; HT-1080, 3.2E+00 μM): 4%
Test/Control (%) at Drug Concentration ([6]; HT-1080, 3.2E+01 μM): 3%
Test/Control (%) at Drug Concentration ([6]; HT-1080, 3.2E−01 μM): 35%
Test/Control (%) at Drug Concentration ([6]; HT-1080, 3.2E−02 μM): 79%
Test/Control (%) at Drug Concentration ([6]; HT-1080, 3.2E−03 μM): 90%
half-life at 1 μM ([7]; cryopreserved hepatocytes (suspension), in the presence of cimetidine (30-300 μM), read-out: half-life, maximum): ≤ 139 min
half-life at 1 μM ([7]; cryopreserved hepatocytes (suspension), substrate 1 μM, no inhibitor, read-out: t1/2): 104 min
hepatocyte CLint at 1 µM ([7]; cryopreserved hepatocytes (suspension), with furafylline 10 µM, substrate 1 μM, 10 μM furafylline): 2.43 µL/min/1e6 cells
hepatocyte CLint at 1 µM ([7]; cryopreserved hepatocytes (suspension), with furafylline 30 µM, substrate 1 μM, 30 μM furafylline): 1.47 µL/min/1e6 cells
half-life at 1 μM ([7]; cryopreserved hepatocytes (suspension), with furafylline 3-30 µM (maximum half-life over 3, 10 and 30 µM), in the presence of furafylline (3-30 μM), read-out: half-life, maximum): ≤ 941 min
hepatocyte CLint at 1 µM ([7]; cryopreserved hepatocytes, substrate 1 μM, absence of inhibitor (inhibitor experiment)): 13.3 µL/min/1e6 cells
hepatocyte CLint at 1 µM ([7]; cryopreserved hepatocytes, substrate 1 μM, hepatocyte stability investigation (no inhibitor arm)): 19.1 µL/min/1e6 cells
hepatocyte CLint at 1 µM ([7]; cryopreserved hepatocytes, with cimetidine 30 μM, substrate 1 μM, 30 μM cimetidine): 13.2 µL/min/1e6 cells
half-life at 1 μM ([7]; cryopreserved hepatocytes, with cimetidine 30 μM, substrate 1 μM, cimetidine 30 μM, read-out: t1/2): 105 min
hepatocyte CLint at 1 µM ([7]; cryopreserved hepatocytes, with cimetidine 100 μM, substrate 1 μM, 100 μM cimetidine): 14.7 µL/min/1e6 cells
half-life at 1 μM ([7]; cryopreserved hepatocytes, with cimetidine 100 μM, substrate 1 μM, cimetidine 100 μM, read-out: t1/2): 94.1 min
hepatocyte CLint at 1 µM ([7]; cryopreserved hepatocytes, with cimetidine 300 μM, substrate 1 μM, 300 μM cimetidine): 9.98 µL/min/1e6 cells
half-life at 1 μM ([7]; cryopreserved hepatocytes, with cimetidine 300 μM, substrate 1 μM, cimetidine 300 μM, read-out: t1/2): 139 min
hepatocyte CLint at 1 µM ([7]; cryopreserved hepatocytes, with furafylline 3 μM, substrate 1 μM, 3 μM furafylline): 3.47 µL/min/1e6 cells
half-life at 1 μM ([7]; cryopreserved hepatocytes, with furafylline 3 μM, substrate 1 μM, furafylline 3 μM, read-out: t1/2): 399 min
half-life at 1 μM ([7]; cryopreserved hepatocytes, with furafylline 10 μM, substrate 1 μM, furafylline 10 μM, read-out: t1/2): 570 min
half-life at 1 μM ([7]; cryopreserved hepatocytes, with furafylline 30 μM, substrate 1 μM, furafylline 30 μM, read-out: t1/2): 941 min
Test/Control (%) at Drug Concentration ([8]; RH-41, 1.0E+00 μM): 5%
Test/Control (%) at Drug Concentration ([8]; RH-41, 1.0E+01 μM): 6%
Test/Control (%) at Drug Concentration ([8]; RH-41, 1.0E+02 μM): 1%
Test/Control (%) at Drug Concentration ([8]; RH-41, 1.0E−01 μM): 81%
Test/Control (%) at Drug Concentration ([8]; RH-41, 1.0E−02 μM): 105%
Test/Control (%) at Drug Concentration ([8]; RH-41, 3.2E+00 μM): 5%
Test/Control (%) at Drug Concentration ([8]; RH-41, 3.2E+01 μM): 4%
Test/Control (%) at Drug Concentration ([8]; RH-41, 3.2E−01 μM): 17%
Test/Control (%) at Drug Concentration ([8]; RH-41, 3.2E−02 μM): 93%
Test/Control (%) at Drug Concentration ([8]; RH-41, 3.2E−03 μM): 95%
Test/Control (%) at Drug Concentration ([9]; A-204, 1.0E+00 μM): 45%
Test/Control (%) at Drug Concentration ([9]; A-204, 1.0E+01 μM): 28%
Test/Control (%) at Drug Concentration ([9]; A-204, 1.0E+02 μM): 10%
Test/Control (%) at Drug Concentration ([9]; A-204, 1.0E−01 μM): 79%
Test/Control (%) at Drug Concentration ([9]; A-204, 1.0E−02 μM): 96%
Test/Control (%) at Drug Concentration ([9]; A-204, 3.2E+00 μM): 35%
Test/Control (%) at Drug Concentration ([9]; A-204, 3.2E+01 μM): 20%
Test/Control (%) at Drug Concentration ([9]; A-204, 3.2E−01 μM): 60%
Test/Control (%) at Drug Concentration ([9]; A-204, 3.2E−02 μM): 83%
Test/Control (%) at Drug Concentration ([9]; A-204, 3.2E−03 μM): 114%
